Experimental findings from DBAASP are described below.

By MIC is commonly meant the lowest concentration found to suppress growth. Read a low MIC as greater potency.

Some test systems named below: Staphylococcus xylosus; Escherichia coli K-12; Escherichia coli DC2; Staphylococcus aureus.
What all share (assay): ≥ marks a high value that may be exact or a test limit, other limits are often not marked, values filed in µg/mL are converted to µM
Experiment [1] concerns Salmonella typhimurium KCTC 1926.
The test system of experiment [2] is Pseudomonas aeruginosa ATCC 15692.
Experiment [3] relates to Staphylococcus aureus ATCC 25923.
Experiment [4] concerns Proteus vulgaris KCTC 2433.
For experiment [5], the system named is Aspergillus parasiticus KCTC 6598.
Experiment [6] concerns Listeria monocytogenes KCTC 3710.
The subject of experiment [7] is Aspergillus awamori KCTC 6915.
The subject of experiment [8] is Aspergillus flavus KCTC 6905.
The subject of experiment [9] is Escherichia coli ATCC 25922.
For experiment [10], the system named is Candida albicans KCTC 7270.
Experiment [11] has as its system Trichosporon beigelii KCTC 7707.
Experiment [12] concerns Aspergillus fumigatus KCTC 6145.
Experiment [13] relates to Bacillus subtilis KCTC 1998.
Experiment [14] has as its system Staphylococcus epidermidis ATCC 12228.
Experiment [15] concerns Micrococcus luteus MTCC 106.
Experiment [16] relates to Vibrio cholerae MTCC 3904.
For experiment [17], the system named is Batrachochytrium dendrobatidis JEL-197.
The test system of experiment [18] is Pseudomonas aeruginosa CMCCB 10104.
Experiment [19] concerns Candida albicans ATCC 2002.
Experiment [20] concerns Staphylococcus aureus ATCC 2592.
Experiment [21] concerns Escherichia coli DH5alpha.
Experiment [22] concerns Escherichia coli ATCC 51659.
Experiment [23] has as its system Acinetobacter baumannii ATCC BAA-1794.
The test system of experiment [24] is Staphylococcus aureus ATCC 33592.
The subject of experiment [25] is Pseudomonas aeruginosa PAO1.
For experiment [26], the system named is Micrococcus luteus ATCC 9341.
The test system of experiment [27] is Staphylococcus aureus ATCC 6538.
The subject of experiment [28] is Escherichia coli ATCC 2592.
Experiment [29] concerns Pseudomonas aeruginosa ATCC 9027.
The test system of experiment [30] is Staphylococcus aureus 1550.
Experiment [31] deals with Staphylococcus aureus UAMS-1.

In brackets after ≈: the same amount, converted by molar mass.

Turning to `CC[C@H](C)[C@H](NC(=O)[C@H](CCCCN)NC(=O)[C@H](CCCCN)NC(=O)[C@H](Cc1ccccc1)NC(=O)[C@H](CC(C)C)NC(=O)[C@H](CCCCN)NC(=O)[C@H](CCCCN)NC(=O)[C@H](CC(C)C)NC(=O)[C@H](CCCN=C(N)N)NC(=O)[C@H](CCCCN)NC(=O)[C@H](C)N)C(=O)N[C@@H](Cc1c[nH]c2ccccc12)C(=O)N[C@@H](CC(N)=O)C(=O)N[C@@H](Cc1c[nH]c2ccccc12)C(=O)N[C@@H](CCCCN)C(N)=O` [AKRLKKLFKKIWNWK], the MIC in experiment [1] stood at 1 µM (≈ 1.99 µg/mL); in experiment [2] it was 1 µM (≈ 1.99 µg/mL); in experiment [3], 2 µM (≈ 3.97 µg/mL); in experiment [4], 4 µM (≈ 7.95 µg/mL); in [5] it was 8 µM (≈ 15.9 µg/mL); in experiment [6], 2 µM (≈ 3.97 µg/mL). The MIC was found to be 16 µM (≈ 31.8 µg/mL) in [7]; 16 µM (≈ 31.8 µg/mL) in experiment [8]; 4 µM (≈ 7.95 µg/mL) in experiment [9]; 8 µM (≈ 15.9 µg/mL) in experiment [10]; 16 µM (≈ 31.8 µg/mL) in [11]; 8 µM (≈ 15.9 µg/mL) in [12]. In addition, the minimum inhibitory concentration (MIC) in [13] worked out at 2 µM (≈ 3.97 µg/mL); in experiment [14], 2.83 µM (≈ 5.62 µg/mL).
With `CC(C)C[C@H](NC(=O)[C@H](Cc1cnc[nH]1)NC(=O)[C@@H](NC(=O)[C@H](CC(C)C)NC(=O)[C@@H]1CSSC[C@H](NC(=O)[C@H](CO)NC(=O)[C@H](Cc2ccccc2)NC(=O)[C@@H]2CCCN2C(=O)[C@@H](NC(=O)[C@@H]2CCCN2C(=O)[C@H](C)N)C(C)C)C(=O)N[C@@H]([C@@H](C)O)C(=O)N[C@@H](CCCN=C(N)N)C(=O)NCC(=O)N1)[C@@H](C)O)C(=O)N[C@H](C(=O)O)C(C)C` [APVPFSCTRGCLTHLV], the minimum inhibitory concentration (MIC) amounted to 6.3 µM (≈ 10.7 µg/mL) in experiment [15] and 25.4 µM (≈ 43.2 µg/mL) in [16].
As for `CC[C@H](C)[C@H](NC(=O)[C@H](CCCCN)NC(=O)[C@H](CCCCN)NC(=O)[C@H](CC(C)C)NC(=O)[C@@H](NC(=O)[C@H](CCC(N)=O)NC(=O)CNC(=O)[C@H](C)NC(=O)[C@@H](NC(=O)CNC(=O)[C@H](C)NC(=O)[C@@H](NC(=O)[C@@H](NC(=O)[C@@H]1CCCN1C(=O)[C@H](Cc1ccccc1)NC(=O)[C@@H](N)Cc1ccccc1)[C@@H](C)CC)C(C)C)C(C)C)C(C)C)C(=O)N[C@@H](Cc1ccc(O)cc1)C(=O)N[C@H]1CSSC[C@@H](C(=O)O)NC(=O)[C@H](CCCCN)NC(=O)[C@H](CCCCN)NC(=O)[C@H](CO)NC(=O)[C@H]([C@@H](C)CC)NC(=O)[C@H]([C@@H](C)O)NC1=O` [FFPIVAGVAGQVLKKIYCTISKKC], the MIC in experiment [9] came to 14 µM (≈ 36.6 µg/mL); in [17] it was 20 µM (≈ 52.2 µg/mL).
Regarding `CC[C@H](C)[C@H](N)C(=O)N[C@@H](CC(C)C)C(=O)NCC(=O)N1CCC[C@H]1C(=O)N[C@H](C(=O)N[C@@H](CC(C)C)C(=O)NCC(=O)N[C@@H](CC(C)C)C(=O)N[C@H](C(=O)NCC(=O)N[C@@H](CC(N)=O)C(=O)N[C@@H](C)C(=O)N[C@@H](CC(C)C)C(=O)NCC(=O)NCC(=O)N[C@@H](CC(C)C)C(=O)N[C@H](C(=O)N[C@@H](CCCCN)C(=O)N[C@@H](CCCCN)C(=O)N[C@H](C(N)=O)[C@@H](C)CC)[C@@H](C)CC)C(C)C)C(C)C` [ILGPVLGLVGNALGGLIKKI], the minimal inhibitory concentration (MIC) in experiment [18] was 10.3 µM (≈ 20 µg/mL); in [9] it was 10.3 µM (≈ 20 µg/mL); in [19] it was 2.57 µM (≈ 5 µg/mL); in experiment [20], 5.14 µM (≈ 10 µg/mL).
On to `CC[C@H](C)[C@H](NC(=O)[C@H](CCCCN)NC(=O)[C@H](CCCCN)NC(=O)[C@@H](N)CCCCN)C(=O)N[C@H](C(=O)N[C@H](C(=O)N[C@H](C(=O)N[C@H](C(=O)N[C@H](C(=O)N[C@@H](CCCCN)C(=O)N[C@@H](CCCCN)C(=O)N[C@@H](CCCCN)C(=O)O)[C@@H](C)CC)[C@@H](C)CC)[C@@H](C)CC)[C@@H](C)CC)[C@@H](C)CC` [KKKIIIIIIKKK], for which the minimum inhibitory concentration (MIC) with Staphylococcus xylosus turned out to be 0.5 µM (≈ 0.733 µg/mL); in experiment [21] it was 8 µM (≈ 11.7 µg/mL).
For the compound `CC(C)C[C@H](NC(=O)[C@H](CCCCN)NC(=O)[C@H](CCC(=O)O)NC(=O)[C@H](CCCCN)NC(=O)[C@@H](NC(=O)[C@H](CCCCN)NC(=O)[C@H](CCCCN)NC(=O)[C@H](Cc1ccccc1)NC(=O)[C@H](Cc1cnc[nH]1)NC(=O)[C@H](CCC(=O)O)NC(=O)[C@H](CO)NC(=O)[C@H](Cc1ccccc1)NC(=O)[C@H](Cc1c[nH]c2ccccc12)NC(=O)[C@H](CC(N)=O)NC(=O)[C@H](CCCN=C(N)N)NC(=O)[C@@H](NC(=O)[C@@H](N)CCCCN)[C@@H](C)O)C(C)C)C(=O)N[C@@H](CCCCN)C(=O)N[C@@H](CC(=O)O)C(=O)N[C@H](C(=O)N[C@@H](Cc1ccccc1)C(=O)N[C@@H](C)C(=O)O)[C@@H](C)O` [KTRNWFSEHFKKVKEKLKDTFA], the MIC is ≥ 90.3 µM in [22], ≥ 90.3 µM in [23], ≥ 90.3 µM in experiment [24] and > 90.3 µM in experiment [25].
On to `CC(C)C[C@H](NC(=O)[C@@H](NC(=O)[C@H](CCCCN)NC(=O)[C@H](Cc1ccccc1)NC(=O)[C@@H](NC(=O)[C@@H](NC(=O)[C@H](CCCCN)NC(=O)[C@@H](N)CC(C)C)C(C)C)C(C)C)C(C)C)C(=O)N[C@@H](Cc1ccccc1)C(=O)N[C@@H](CCCCN)C(=O)O` [LKVVFKVLFK], for which the minimum inhibitory concentration (MIC) amounted to 9.01 µM (≈ 11 µg/mL) in [26]; 10.2 µM (≈ 12.5 µg/mL) in experiment [27]; 18 µM (≈ 22 µg/mL) in [28]; 13.1 µM (≈ 16 µg/mL) in experiment [29]; 13.1 µM (≈ 16 µg/mL) in experiment [30].
With `CC[C@H](C)[C@H](NC(=O)[C@H](CCCCN)NC(=O)[C@H](CCC(=O)O)NC(=O)[C@H](CCCCN)NC(=O)[C@H](CO)NC(=O)[C@H](CCCCN)NC(=O)[C@H](CCCN=C(N)N)NC(=O)[C@H](Cc1ccccc1)NC(=O)[C@H](Cc1ccccc1)NC(=O)[C@H](CC(=O)O)NC(=O)CNC(=O)[C@H](CC(C)C)NC(=O)[C@@H](N)CC(C)C)C(=O)NCC(=O)N[C@@H](CCCCN)C(=O)N[C@@H](CCC(=O)O)C(=O)N[C@@H](Cc1ccccc1)C(=O)N[C@@H](CCCCN)C(=O)N[C@@H](CCCN=C(N)N)C(=O)N[C@H](C(=O)N[C@H](C(=O)N[C@@H](CCC(N)=O)C(=O)N[C@@H](CCCN=C(N)N)C(=O)O)C(C)C)[C@@H](C)CC` [LLGDFFRKSKEKIGKEFKRIVQR], the MIC is ≥ 160 µM in [31], ≥ 160 µM with Escherichia coli K-12, 9 µM (≈ 25.4 µg/mL) in the experiment with Escherichia coli DC2 and > 24 µM in the experiment on Staphylococcus aureus.
